Test results taken from patent US8569344B2, “N-piperidinyl acetamide derivatives as calcium channel blockers” (Zalicus Pharmaceuticals Ltd., priority 2008, dated 2013).

Tests used:
[1] = molecular target: T1, human α1G T-type channels (Homo sapiens, UniProt O43497); assay: T-type calcium channel block, whole cell patch clamp in HEK cells (α1G); format: cell-based; settings: HEK cells, patch clamp, mainly non-inactivated protocol; values above 10 μM shown as 10 μM, below 0.30 μM shown as 0.30 μM; read-out: T-type Calcium Channel Block α1G IC50
T1 construct: expressed in transfected cells; host or cells: HEK 293

[2] = molecular target: T2, human α1H T-type channels (Homo sapiens, UniProt O95180); assay: T-type calcium channel block, whole cell patch clamp in HEK cells (α1H); format: cell-based; settings: HEK cells, patch clamp, mainly non-inactivated protocol; values above 10 μM shown as 10 μM; read-out: T-type Calcium Channel Block α1H IC50
T2 construct: expressed in transfected cells; host or cells: HEK 293
Protocol: T-type calcium channel blocking activity was assayed in human embryonic kidney cells, HEK 293, stably transfected with the T-type calcium channel subunits. Briefly, cells were cultured in Dulbecco's modified eagle medium (DMEM) supplemented with 10% fetal bovine serum, 200 U/ml penicillin and 0.2 mg/ml streptomycin at 37° C. with 5% CO2. At 85% confluency cells were split with 0.25% trypsin/1 mM EDTA and plated at 10% confluency on glass coverslips. […] Fresh DMEM was supplied and the cells transferred to 28° C./5% CO2. Cells were incubated for 1 to 2 days prior to whole cell recording.
Standard patch-clamp techniques were employed to identify blockers of T-type currents. Briefly, previously described HEK cell lines stably expressing human α1G, α1H and α1I T-type channels were used for all the recordings (passage #: 4-20, 37° C., 5% CO2). Whole cell patch clamp experiments were performed using an Axopatch 200B amplifier (Axon Instruments, Burlingame, Calif.) linked to a personal computer equipped with pCLAMP software. Data were analyzed using Clampfit (Axon Instruments) and SigmaPlot 4.0 (Jandel Scientific). To obtain T-type currents, plastic dishes containing semi-confluent cells were positioned on the stage of a ZEISS AXIOVERT S100 microscope after replacing the culture medium with external solution (see below). Whole-cell patches were obtained using pipettes (borosilicate glass with filament, O.D.: 1.5 mm, I.D.: 0.86 mm, 10 cm length), fabricated on a SUTTER P-97 puller with resistance values of ˜5 MΩ (see below for internal solution).
In the non-inactivating protocol, the holding potential is set at −110 mV and with a pre-pulse at −100 mV for 1 second prior to the test pulse at −40 mV for 50 ms.
Test compounds were dissolved in external solution, 0.1-0.01% DMSO. After ˜10 min rest, they were applied by gravity close to the cell using a WPI microfil tubing. The “non-inactivated” pre-pulse was used to examine the resting block of a compound. The “inactivated” protocol was employed to study voltage-dependent block. […] Values are shown in μM and values above 10 μM are simply represented as 10 μM.

T2 sequence (O95180 whole entry): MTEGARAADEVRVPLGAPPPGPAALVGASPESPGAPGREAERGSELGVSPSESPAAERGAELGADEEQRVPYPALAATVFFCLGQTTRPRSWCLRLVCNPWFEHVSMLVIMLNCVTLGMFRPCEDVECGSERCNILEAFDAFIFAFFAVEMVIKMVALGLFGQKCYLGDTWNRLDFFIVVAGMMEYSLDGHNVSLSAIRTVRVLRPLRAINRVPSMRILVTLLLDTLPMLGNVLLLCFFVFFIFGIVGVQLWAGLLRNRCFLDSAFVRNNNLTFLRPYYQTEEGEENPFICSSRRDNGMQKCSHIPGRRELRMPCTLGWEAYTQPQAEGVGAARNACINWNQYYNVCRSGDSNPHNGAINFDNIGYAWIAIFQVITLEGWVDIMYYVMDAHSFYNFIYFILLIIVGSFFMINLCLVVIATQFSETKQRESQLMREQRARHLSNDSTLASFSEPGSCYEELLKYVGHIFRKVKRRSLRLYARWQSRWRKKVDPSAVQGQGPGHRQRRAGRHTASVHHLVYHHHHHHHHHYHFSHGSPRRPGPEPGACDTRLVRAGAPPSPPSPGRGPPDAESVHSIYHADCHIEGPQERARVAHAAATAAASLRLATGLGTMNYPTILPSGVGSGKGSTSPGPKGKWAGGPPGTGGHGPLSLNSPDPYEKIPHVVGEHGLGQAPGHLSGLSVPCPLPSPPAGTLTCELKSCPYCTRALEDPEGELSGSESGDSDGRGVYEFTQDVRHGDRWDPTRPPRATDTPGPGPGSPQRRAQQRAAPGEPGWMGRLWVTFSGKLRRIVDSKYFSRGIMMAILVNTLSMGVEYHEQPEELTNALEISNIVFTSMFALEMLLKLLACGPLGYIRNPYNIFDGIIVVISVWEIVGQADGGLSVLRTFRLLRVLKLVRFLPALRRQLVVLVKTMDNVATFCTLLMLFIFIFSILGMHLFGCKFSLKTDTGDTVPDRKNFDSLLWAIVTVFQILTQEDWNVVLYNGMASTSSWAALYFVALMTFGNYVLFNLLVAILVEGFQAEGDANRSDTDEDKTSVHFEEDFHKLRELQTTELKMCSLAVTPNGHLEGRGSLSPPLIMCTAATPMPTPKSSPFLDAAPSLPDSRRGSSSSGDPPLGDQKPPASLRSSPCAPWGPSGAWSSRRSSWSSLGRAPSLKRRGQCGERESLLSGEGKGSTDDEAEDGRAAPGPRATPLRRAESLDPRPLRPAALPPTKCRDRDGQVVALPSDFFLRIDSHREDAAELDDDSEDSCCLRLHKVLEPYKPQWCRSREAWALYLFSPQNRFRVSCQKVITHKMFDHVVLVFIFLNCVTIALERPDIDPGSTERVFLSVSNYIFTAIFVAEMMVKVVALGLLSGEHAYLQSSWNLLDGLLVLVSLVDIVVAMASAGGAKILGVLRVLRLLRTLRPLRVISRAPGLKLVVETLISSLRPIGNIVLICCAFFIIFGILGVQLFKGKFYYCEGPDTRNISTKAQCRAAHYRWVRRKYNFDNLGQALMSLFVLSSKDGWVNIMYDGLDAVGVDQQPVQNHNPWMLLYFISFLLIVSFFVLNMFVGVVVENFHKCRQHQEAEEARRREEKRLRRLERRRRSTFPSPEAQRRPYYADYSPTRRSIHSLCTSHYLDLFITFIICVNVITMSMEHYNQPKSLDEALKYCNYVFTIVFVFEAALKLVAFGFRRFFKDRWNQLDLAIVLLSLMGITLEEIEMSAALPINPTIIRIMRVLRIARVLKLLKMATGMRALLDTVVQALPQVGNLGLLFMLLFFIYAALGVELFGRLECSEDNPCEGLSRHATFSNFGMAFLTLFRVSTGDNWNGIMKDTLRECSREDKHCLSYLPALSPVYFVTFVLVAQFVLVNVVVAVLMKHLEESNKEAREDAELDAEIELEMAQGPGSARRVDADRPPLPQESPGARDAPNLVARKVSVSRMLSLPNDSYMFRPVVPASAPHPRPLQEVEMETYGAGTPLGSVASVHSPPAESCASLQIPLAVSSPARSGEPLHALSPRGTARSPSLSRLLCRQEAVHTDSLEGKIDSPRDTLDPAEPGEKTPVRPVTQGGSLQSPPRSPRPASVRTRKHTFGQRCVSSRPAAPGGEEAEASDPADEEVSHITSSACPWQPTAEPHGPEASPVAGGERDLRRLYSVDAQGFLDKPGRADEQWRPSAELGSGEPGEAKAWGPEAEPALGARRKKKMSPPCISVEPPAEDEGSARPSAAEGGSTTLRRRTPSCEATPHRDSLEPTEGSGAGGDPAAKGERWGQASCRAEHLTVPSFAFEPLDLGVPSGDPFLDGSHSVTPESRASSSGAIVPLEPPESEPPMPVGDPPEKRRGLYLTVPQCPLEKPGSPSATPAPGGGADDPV
T1 sequence (O43497 whole entry): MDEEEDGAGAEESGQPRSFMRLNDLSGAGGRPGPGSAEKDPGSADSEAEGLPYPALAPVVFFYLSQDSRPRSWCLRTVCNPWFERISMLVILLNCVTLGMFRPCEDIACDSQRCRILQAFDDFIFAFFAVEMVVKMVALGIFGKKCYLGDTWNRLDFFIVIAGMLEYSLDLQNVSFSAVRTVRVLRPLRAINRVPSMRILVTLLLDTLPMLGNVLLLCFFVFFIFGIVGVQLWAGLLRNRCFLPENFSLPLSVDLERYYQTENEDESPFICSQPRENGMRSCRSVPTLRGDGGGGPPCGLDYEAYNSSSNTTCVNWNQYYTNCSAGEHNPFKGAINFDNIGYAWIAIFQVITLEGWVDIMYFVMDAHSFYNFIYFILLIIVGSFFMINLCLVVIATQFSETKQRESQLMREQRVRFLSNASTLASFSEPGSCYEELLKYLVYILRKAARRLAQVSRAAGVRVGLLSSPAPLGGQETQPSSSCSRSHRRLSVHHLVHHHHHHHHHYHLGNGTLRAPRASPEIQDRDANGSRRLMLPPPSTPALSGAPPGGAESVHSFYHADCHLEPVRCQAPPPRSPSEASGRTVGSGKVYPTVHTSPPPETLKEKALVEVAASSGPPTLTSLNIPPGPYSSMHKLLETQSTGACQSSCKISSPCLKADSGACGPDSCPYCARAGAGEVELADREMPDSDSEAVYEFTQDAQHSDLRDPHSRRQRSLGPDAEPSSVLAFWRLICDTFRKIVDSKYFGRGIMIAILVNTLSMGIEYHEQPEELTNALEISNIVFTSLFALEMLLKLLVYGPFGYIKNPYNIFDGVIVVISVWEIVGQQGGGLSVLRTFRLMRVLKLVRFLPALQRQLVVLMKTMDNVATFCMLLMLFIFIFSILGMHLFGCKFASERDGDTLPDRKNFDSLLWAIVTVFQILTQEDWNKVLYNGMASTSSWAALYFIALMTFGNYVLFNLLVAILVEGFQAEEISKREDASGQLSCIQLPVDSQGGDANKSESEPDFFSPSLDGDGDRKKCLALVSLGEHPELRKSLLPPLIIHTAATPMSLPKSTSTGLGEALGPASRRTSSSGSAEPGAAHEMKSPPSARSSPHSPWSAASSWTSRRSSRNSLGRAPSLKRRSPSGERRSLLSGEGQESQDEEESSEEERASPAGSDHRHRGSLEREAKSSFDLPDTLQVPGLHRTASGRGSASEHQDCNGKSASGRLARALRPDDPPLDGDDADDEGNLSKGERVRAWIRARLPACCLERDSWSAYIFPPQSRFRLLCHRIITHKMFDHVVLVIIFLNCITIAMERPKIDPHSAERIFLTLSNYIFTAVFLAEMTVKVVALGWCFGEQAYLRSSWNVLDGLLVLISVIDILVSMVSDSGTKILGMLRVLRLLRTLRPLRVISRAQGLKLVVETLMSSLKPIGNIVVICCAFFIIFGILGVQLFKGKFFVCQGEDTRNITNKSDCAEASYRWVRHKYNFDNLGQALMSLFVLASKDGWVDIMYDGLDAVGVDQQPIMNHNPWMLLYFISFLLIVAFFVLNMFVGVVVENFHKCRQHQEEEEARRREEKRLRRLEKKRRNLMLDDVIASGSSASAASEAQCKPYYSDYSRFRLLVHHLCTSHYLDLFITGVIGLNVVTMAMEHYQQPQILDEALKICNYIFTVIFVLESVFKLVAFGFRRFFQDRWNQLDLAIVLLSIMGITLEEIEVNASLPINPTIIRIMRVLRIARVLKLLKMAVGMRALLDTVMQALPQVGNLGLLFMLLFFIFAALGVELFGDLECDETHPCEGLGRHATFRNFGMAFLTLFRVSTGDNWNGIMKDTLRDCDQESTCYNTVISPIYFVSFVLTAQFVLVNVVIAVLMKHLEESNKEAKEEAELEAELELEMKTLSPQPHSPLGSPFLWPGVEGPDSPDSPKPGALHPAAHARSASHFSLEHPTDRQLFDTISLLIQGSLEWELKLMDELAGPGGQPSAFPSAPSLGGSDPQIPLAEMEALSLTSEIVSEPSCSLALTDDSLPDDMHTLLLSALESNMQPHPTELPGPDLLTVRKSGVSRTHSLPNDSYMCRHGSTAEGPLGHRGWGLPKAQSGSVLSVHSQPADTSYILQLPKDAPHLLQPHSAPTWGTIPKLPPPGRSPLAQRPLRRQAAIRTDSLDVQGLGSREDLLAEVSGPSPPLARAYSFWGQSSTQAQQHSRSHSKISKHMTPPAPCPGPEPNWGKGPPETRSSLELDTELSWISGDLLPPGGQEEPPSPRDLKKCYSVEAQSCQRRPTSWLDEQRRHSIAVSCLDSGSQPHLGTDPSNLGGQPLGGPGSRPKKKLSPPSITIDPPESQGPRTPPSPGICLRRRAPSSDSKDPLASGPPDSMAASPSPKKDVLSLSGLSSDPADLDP

| SMILES | IC50 [1] [µM] | IC50 [2] [µM] |
| --- | --- | --- |
| Cc1cc(C)cc(C(=O)NCC2CCN(CCNC(=O)C(C)(C)C)CC2)c1 [Compound 295, 3,5-dimethyl-N-((1-(2-pivalamidoethyl)piperidin-4-yl)methyl)benzamide] | 1.34 | 1.26 |
| COc1cc(F)cc(C(=O)NCC2CCN(CCNS(=O)(=O)C3CC3)CC2)c1 [Compound 321, N-((1-(2-(cyclopropanesulfonamido)ethyl)piperidin-4-yl)methyl)-3-fluoro-5-methoxybenzamide] | 1.33 | 1.92 |
| COc1cc(F)cc(C(=O)NCC2CCN(CCNS(=O)(=O)C(F)(F)F)CC2)c1 [Compound 325, 3-fluoro-5-methoy-N-((1-(2-(trifluoromethylsulfonamido)ethyl)piperidin-4-yl)methyl)benzamide] | 6.58 | 3.39 |
| NC1(C(=O)NCCN2CCC(CNC(=O)c3cc(F)cc(C(F)(F)F)c3)CC2)CCCCC1 [Compound 570, N-((1-(2-(1-aminocyclohexanecarboxamido)ethyl)piperidin-4-yl)methyl)-3-fluoro-5-(trifluoromethyl)benzamide] | 2.06 | 2.36 |
| CC(C)(C)C(=O)NCCN1CCC(CNC(=O)c2cccc(Cl)c2)CC1 [Compound 299, 3-chloro-N-((1-(2-pivalamidoethyl)piperidin-4-yl)methyl)benzamide] | 1.21 | 1.98 |
| CC(C)(CN1CCC(CNC(=O)c2cc(F)cc(C(F)(F)F)c2)CC1)NS(=O)(=O)C1CC1 [Compound 8, N-((1-(2-(cyclopropanesulfonamido)-2-methylpropyl)piperidin-4-yl)methyl)-3-fluoro-5-(trifluoromethyl)benzamide] | – | 2.42 |
| O=C(NCC1CCN(CCN2CCCC2=O)CC1)c1cc(F)cc(C(F)(F)F)c1 [Compound 487, 3-fluoro-N-((1-(2-(2-oxopyrrolidin-1-yl)ethyl)piperidin-4-yl)methyl)-5-(trifluoromethyl)benzamide] | – | > 10 |
| O=C(NCC1CCN(C(=O)CN2CC[C@@H](O)C2)CC1)c1cc(C(F)(F)F)cc(C(F)(F)F)c1 [Compound 263, (R)-N-((1-(2-(3-hydroxypyrrolidin-1-yl)acetyl)piperidin-4-yl)methyl)-3,5-bis(trifluoromethyl)benzamide] | – | > 10 |
| CC(C)(O)C(=O)NCCN1CCC(CNC(=O)c2cc(C(F)(F)F)cc(C(F)(F)F)c2)CC1 [Compound 65, N-((1-(2-(2-hydroxy-2-methylpropanamido)ethyl)piperidin-4-yl)methyl)-3,5-bis(trifluoromethyl) benzamide] | – | 6.37 |
| COC1CCN(C(=O)CN2CCC(CNC(=O)c3cc(C(F)(F)F)cc(C(F)(F)F)c3)CC2)CC1 [Compound 103, N-((1-(2-(4-methoxypiperidin-1-yl)-2-oxoethyl)piperidin-4-yl)methyl)-3,5-bis(trifluoromethyl)benzamide] | – | 1.21 |
| O=C(NCC1CCN(C2CN(C(=O)c3cc(Cl)cc(Cl)c3)C2)CC1)c1cc(F)cc(Cl)c1 [Compound 601, 3-chloro-N-((1-(1-(3,5-dichlorobenzoyl)azetidin-3-yl)piperidin-4-yl)methyl)-5-fluoro-benzamide] | – | 1.87 |
| CCS(=O)(=O)NC(C)(C)CN1CCC(CNC(=O)c2cc(F)cc(C(F)(F)F)c2)CC1 [Compound 7, N-((1-(2-(ethylsulfonamido)-2-methylpropyl)piperidin-4-yl)methyl)-3-fluoro-5-(trifluoromethyl)benzamide] | – | 4.33 |
| CCC(=O)NCCN1CCC(CNC(=O)c2cc(C(F)(F)F)cc(C(F)(F)F)c2)CC1 [Compound 58, N-((1-(2-propionamidoethyl)piperidin-4-yl)methyl)-3,5-bis(trifluoromethyl) benzamide] | – | 4.01 |
| O=C(CC1CCN(C(=O)C2(O)CCNCC2)CC1)Nc1cc(C(F)(F)F)cc(C(F)(F)F)c1 [Compound 157, N-(3,5-bis(trifluoromethyl)phenyl)-2-(1-(4-hydroxypiperidine-4-carbonyl)piperidin-4-yl)acetamide] | – | > 10 |
| CC(C)(C)C(=O)N1CC(N2CCC(CNC(=O)c3cc(F)cc(Cl)c3)CC2)C1 [Compound 607, 3-chloro-5-fluoro-N-((1-(1-pivaloyl-azetidin-3-yl)piperidin-4-yl)methyl) benzamide] | – | 3.17 |
| CC(C)(C)OC(=O)N1CC(N2CCC(CNC(=O)c3cc(F)cc(Cl)c3)CC2)C1 [Compound 597, tert-buyl 3-(4-((3-chloro-5-fluorobenzamido)methyl)piperidin-1-yl)azetidine-1-carboxylate] | – | 6.52 |
| COc1cc(Cl)cc(C(=O)N2CC(N3CCC(CNC(=O)c4cc(F)cc(Cl)c4)CC3)C2)c1 [Compound 600, 3-chloro-N-((1-(1-(3-chloro-5-methoxybenzoyl)azetidin-3-yl)piperidin-4-yl)methyl)-5-fluoro-benzamide] | – | 2.05 |
| O=C(NCC1CCN(C2CN(C(=O)C3(C(F)(F)F)CC3)C2)CC1)c1cc(F)cc(Cl)c1 [Compound 609, 3-chloro-5-fluoro-N-((1-(1-(1-(trifluoromethyl)cyclopropanecarbonyl)azetidin-3-yl)piperidin-4-yl)methyl) benzamide] | – | 3.05 |

The next molecules have a lower IC50 [2] than those just listed; values first:

| IC50 [1] [µM] | IC50 [2] [µM] | SMILES |
| --- | --- | --- |
| 1.31 | 1.13 | CN(CC(=O)N1CCC(CNC(=O)c2cc(C(F)(F)F)cc(C(F)(F)F)c2)CC1)C1CCCCC1 [Compound 246, N-((1-(2-(cyclohexyl(methyl)amino)acetyl)piperidin-4-yl)methyl)-3,5-bis(trifluoromethyl)benzamide] |
| < 0.3 | 0.04 | O=C(NCC1CCN(CCNC(=O)C2(C(F)(F)F)CC2)CC1)c1cccc(OC(F)(F)F)c1 [Compound 474, 3-(trifluoromethoxy)-N-((1-(2-(1-(trifluoromethyl)cyclopropanecarbox-amido)ethyl)piperidin-4-yl)methyl) benzamide] |
| < 0.3 | 0.16 | CC(C)(C(=O)NCCN1CCC(CNC(=O)c2cccc(Cl)c2)CC1)C(F)(F)F [Compound 494, 3-chloro-N-((1-(2-(3,3,3-trifluoro-2,2-dimethylpropanamido)ethyl)piperidin-4-yl)methyl)benzamide] |
| – | 0.25 | O=C(NCC1CCN(CC(=O)N2CCC(C(F)(F)F)CC2)CC1)c1cc(C(F)(F)F)cc(C(F)(F)F)c1 [Compound 108, N-((1-(2-oxo-2-(4-(trifluoromethyl)piperidin-1-yl)ethyl)piperidin-4-yl)methyl)-3,5-bis(trifluoromethyl) benzamide] |
| – | 0.09 | CC1CCCCC1NC(=O)CN1CCC(CNC(=O)c2cc(C(F)(F)F)cc(C(F)(F)F)c2)CC1 (centres unmarked) [Compound 93] |
| – | 0.17 | COc1cc(Cl)cc(C(=O)NCC2CCN(CC(=O)N(C)C3(C)CCC3)CC2)c1 [Compound 591, 3-chloro-5-methoxy-N-((1-(2-(methyl(1-methylcyclobutyl)amino)-2-oxoethyl)piperidin-4-yl)methyl)benzamide] |
| – | 0.08 | CN(C(=O)CN1CCC(CNC(=O)c2cc(Cl)cc(Br)c2)CC1)C1(C)CCC1 [Compound 595, 3-bromo-5-chloro-N-((1-(2-(methyl(1-methylcyclobutyl)amino)-2-oxoethyl)piperidin-4-yl)methyl)benzamide] |
| – | 0.77 | O=C(NCC1CCN(C2CN(C(=O)C3(C(F)(F)F)CCC3)C2)CC1)c1cc(F)cc(Cl)c1 [Compound 610, 3-chloro-5-fluoro-N-((1-(1-(1-(trifluoromethyl)cyclobutanecarbonyl)azetidin-3-yl)piperidin-4-yl)methyl) benzamide] |
| – | 0.1 | CCC1CCCCN1C(=O)CN1CCC(CNC(=O)c2cc(C(F)(F)F)cc(C(F)(F)F)c2)CC1 (centres unmarked) [Compound 100, N-((1-(2-(2-ethylpiperidin-1-yl)-2-oxoethyl)piperidin-4-yl)methyl)-3,5-bis(trifluoromethyl)benzamide] |
| – | 0.14 | C[C@@H]1CCCCN1C(=O)CN1CCC(CNC(=O)c2cc(C(F)(F)F)cc(C(F)(F)F)c2)CC1 [Compound 104, (R)-N-((1-(2-(2-methylpiperidin-1-yl)-2-oxoethyl)piperidin-4-yl)methyl)-3,5-bis(trifluoromethyl)benzamide] |
| – | 0.08 | CN(C(=O)CN1CCC(CNC(=O)c2cc(Cl)cc(Cl)c2)CC1)C1(C)CCC1 [Compound 592, 3,5-dichloro-N-((1-(2-(methyl(1-methylcyclobutyl)amino)-2-oxoethyl)piperidin-4-yl)methyl) benzamide] |
| – | 0.37 | O=C(CCC(F)(F)F)NCCN1CCC(CNC(=O)c2cc(C(F)(F)F)cc(C(F)(F)F)c2)CC1 [Compound 66, N-((1-(2-(4,4,4-trifluorobutanamido)ethyl)piperidin-4-yl)methyl)-3,5-bis(trifluoromethyl) benzamide] |
